Measurements taken from PMC11864979, “First-in-class ultralong-target-residence-time p38α inhibitors as a mitosis-targeted therapy for colorectal cancer” (Nature Cancer, 2025).
Like-named read-outs stand apart in the source and are kept apart here.

What was measured:
Experiment in all cases: selectivity profiling in a panel of 340 wild-type kinases (Reaction Biology Europe)
Format in all cases: binding
[1] = biological target: T1, 340 wild-type kinases (Homo sapiens, UniProt Q13163)
T1 construct: purchased Reaction Biology Europe
T1 sequence (Q13163 1-448): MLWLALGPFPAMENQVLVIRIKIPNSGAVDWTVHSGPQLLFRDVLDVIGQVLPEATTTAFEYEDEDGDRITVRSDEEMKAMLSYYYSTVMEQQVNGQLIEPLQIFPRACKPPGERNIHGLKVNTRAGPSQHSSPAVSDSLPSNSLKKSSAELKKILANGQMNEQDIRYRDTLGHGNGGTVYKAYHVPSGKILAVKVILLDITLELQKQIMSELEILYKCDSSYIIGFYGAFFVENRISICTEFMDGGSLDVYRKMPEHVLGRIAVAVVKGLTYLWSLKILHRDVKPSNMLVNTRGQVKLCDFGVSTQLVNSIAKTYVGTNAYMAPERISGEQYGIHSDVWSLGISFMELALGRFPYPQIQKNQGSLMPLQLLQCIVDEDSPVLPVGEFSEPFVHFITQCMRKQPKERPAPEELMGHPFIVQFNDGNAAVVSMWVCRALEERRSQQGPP

[2] = biological target: T2, 340 wild-type kinases (Homo sapiens, UniProt P31751)
T2 construct: purchased Reaction Biology Europe
T2 sequence (P31751 whole entry): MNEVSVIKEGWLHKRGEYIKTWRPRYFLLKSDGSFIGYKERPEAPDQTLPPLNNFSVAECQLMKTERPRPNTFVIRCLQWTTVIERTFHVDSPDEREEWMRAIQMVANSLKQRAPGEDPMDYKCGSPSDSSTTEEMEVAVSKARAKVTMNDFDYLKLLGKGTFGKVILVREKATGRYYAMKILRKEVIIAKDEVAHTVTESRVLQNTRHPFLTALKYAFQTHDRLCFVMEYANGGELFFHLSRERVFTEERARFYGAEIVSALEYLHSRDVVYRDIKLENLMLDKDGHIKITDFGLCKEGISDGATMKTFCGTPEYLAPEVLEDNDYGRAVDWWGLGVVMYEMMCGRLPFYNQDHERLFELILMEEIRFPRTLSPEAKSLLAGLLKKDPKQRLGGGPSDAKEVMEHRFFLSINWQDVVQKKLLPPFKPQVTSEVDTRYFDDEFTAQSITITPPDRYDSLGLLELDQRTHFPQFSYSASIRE

[3] = biological target: T3, 340 wild-type kinases (Homo sapiens, UniProt Q13237)
T3 construct: purchased Reaction Biology Europe
T3 sequence (Q13237 1-762): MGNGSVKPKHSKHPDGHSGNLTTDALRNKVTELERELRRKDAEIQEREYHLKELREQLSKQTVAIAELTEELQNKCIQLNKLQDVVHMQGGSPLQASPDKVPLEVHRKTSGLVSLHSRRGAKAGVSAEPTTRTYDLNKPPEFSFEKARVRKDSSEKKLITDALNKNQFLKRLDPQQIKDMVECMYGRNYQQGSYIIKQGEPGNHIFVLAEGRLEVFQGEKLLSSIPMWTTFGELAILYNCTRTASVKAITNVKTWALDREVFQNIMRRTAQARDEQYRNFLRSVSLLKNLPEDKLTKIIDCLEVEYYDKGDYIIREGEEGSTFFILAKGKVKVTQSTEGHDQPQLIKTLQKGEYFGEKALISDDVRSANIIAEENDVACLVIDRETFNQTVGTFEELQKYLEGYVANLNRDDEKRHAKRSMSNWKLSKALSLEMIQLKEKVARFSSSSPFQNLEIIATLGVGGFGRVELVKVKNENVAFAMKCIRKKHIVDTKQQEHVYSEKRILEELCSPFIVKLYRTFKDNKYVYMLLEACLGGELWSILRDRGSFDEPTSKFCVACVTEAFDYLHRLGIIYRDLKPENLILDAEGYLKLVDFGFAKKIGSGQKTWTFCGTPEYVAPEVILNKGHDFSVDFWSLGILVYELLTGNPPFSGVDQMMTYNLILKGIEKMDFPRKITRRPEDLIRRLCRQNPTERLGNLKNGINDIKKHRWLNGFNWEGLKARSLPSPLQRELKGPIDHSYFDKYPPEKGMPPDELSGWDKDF

[4] = biological target: T4, 340 wild-type kinases (Homo sapiens, UniProt Q9UIK4)
T4 construct: purchased Reaction Biology Europe
T4 sequence (Q9UIK4 whole entry): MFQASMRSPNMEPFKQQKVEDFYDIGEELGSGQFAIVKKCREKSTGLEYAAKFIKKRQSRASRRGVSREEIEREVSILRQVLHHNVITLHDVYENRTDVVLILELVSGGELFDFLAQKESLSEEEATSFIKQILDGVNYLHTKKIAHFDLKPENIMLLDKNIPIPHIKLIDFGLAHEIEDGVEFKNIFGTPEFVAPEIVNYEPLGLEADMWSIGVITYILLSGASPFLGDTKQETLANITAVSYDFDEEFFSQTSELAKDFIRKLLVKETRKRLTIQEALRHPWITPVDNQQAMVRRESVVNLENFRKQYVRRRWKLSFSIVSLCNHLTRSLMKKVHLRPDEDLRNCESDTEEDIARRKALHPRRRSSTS

[5] = biological target: T5, 340 wild-type kinases (Homo sapiens, UniProt P43403)
T5 construct: purchased Reaction Biology Europe
T5 sequence (P43403 1-619): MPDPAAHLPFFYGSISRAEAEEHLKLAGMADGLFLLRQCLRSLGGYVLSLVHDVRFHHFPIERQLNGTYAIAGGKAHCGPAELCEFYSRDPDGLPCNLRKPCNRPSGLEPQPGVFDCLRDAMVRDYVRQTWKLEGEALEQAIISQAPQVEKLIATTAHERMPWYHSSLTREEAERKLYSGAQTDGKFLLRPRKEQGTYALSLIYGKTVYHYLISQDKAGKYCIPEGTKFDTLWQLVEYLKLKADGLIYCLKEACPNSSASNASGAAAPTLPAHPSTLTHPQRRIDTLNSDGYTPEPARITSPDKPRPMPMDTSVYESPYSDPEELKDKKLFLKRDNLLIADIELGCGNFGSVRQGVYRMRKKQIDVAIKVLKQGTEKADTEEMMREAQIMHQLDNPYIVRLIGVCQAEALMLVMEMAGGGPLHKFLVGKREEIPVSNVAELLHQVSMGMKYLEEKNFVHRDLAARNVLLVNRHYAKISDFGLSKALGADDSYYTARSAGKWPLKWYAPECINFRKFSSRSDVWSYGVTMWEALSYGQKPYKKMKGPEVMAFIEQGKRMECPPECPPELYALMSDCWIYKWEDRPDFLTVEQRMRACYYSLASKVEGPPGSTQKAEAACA

[6] = biological target: T6, 340 wild-type kinases (Homo sapiens, UniProt P00519)
T6 construct: purchased Reaction Biology Europe
T6 sequence (P00519 whole entry): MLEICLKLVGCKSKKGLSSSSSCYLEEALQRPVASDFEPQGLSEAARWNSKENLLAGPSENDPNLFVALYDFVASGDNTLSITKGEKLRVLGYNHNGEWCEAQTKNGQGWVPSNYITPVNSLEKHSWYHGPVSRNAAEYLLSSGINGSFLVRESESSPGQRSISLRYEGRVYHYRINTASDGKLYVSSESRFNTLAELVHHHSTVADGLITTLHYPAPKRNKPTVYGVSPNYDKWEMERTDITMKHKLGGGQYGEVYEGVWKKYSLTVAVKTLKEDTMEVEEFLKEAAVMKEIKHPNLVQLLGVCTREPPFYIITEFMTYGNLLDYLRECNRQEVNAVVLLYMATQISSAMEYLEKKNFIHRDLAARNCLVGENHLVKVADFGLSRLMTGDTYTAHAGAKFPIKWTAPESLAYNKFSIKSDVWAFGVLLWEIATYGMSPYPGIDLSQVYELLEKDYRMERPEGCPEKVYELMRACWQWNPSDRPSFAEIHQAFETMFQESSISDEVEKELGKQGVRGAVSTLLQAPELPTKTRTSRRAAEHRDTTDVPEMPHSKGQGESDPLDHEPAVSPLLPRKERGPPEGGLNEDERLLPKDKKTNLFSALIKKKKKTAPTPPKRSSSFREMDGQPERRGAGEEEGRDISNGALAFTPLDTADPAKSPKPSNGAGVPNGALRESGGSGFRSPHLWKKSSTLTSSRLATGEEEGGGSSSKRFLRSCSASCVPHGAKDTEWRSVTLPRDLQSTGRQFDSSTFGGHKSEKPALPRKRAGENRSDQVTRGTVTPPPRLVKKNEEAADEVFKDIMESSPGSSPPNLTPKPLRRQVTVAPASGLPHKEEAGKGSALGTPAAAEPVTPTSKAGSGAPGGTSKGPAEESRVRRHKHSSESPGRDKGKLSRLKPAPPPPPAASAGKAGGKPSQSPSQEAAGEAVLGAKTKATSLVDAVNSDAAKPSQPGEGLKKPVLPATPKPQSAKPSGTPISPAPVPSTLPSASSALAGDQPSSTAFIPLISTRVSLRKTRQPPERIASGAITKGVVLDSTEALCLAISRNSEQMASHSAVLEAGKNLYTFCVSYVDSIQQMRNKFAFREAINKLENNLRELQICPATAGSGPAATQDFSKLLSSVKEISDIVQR

[7] = biological target: T7, 340 wild-type kinases (Homo sapiens, UniProt Q16644)
T7 construct: purchased Reaction Biology Europe
T7 sequence (Q16644 whole entry): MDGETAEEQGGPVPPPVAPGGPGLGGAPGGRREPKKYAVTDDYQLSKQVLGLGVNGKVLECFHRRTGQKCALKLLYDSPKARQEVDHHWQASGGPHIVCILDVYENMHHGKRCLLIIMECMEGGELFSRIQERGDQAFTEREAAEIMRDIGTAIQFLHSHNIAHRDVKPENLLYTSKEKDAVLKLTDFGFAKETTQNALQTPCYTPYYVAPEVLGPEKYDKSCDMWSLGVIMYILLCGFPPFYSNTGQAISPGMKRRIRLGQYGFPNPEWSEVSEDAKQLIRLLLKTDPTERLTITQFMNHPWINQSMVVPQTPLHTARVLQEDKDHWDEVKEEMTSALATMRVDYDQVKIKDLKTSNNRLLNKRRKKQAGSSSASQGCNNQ

With `CNC(=O)c1ccc2c(c1)C(=O)c1ccc(Nc3ccc(F)c(NC(=O)C4CC4)c3)cc1CC2` [Compound 2015] the remaining activity at 0.2 µM ([1]; 0.2 µM 2015, read-out: MEK5 residual activity) was 102%, the remaining activity at 1 µM ([1]; 1 µM 2015, read-out: MEK5 residual activity) was 88.1% and the remaining activity at 0.2 µM ([1]; MEK5, 0.2 µM, read-out: residual activity) was 102%. It also gave a remaining activity at 1 µM ([1]; MEK5, 1 µM, read-out: residual activity) of 88.1%, a remaining activity at 0.2 µM ([2]; 0.2 µM 2015, read-out: AKT2 residual activity) of 64.5% and a remaining activity at 1 µM ([2]; 1 µM 2015, read-out: AKT2 residual activity) of 93%. It also gave a remaining activity at 0.2 µM ([2]; AKT2, 0.2 µM, read-out: residual activity) of 64.5%, a remaining activity at 1 µM ([2]; AKT2, 1 µM, read-out: residual activity) of 93% and a remaining activity at 0.2 µM ([3]; 0.2 µM 2015, read-out: PRKG2 residual activity) of 112%. It also gave a remaining activity at 1 µM ([3]; 1 µM 2015, read-out: PRKG2 residual activity) of 96.9%, a remaining activity at 0.2 µM ([3]; PRKG2, 0.2 µM, read-out: residual activity) of 112% and a remaining activity at 1 µM ([3]; PRKG2, 1 µM, read-out: residual activity) of 96.9%. The remaining activity at 0.2 µM ([4]; 0.2 µM 2015, read-out: DAPK2 residual activity) was 116%, the remaining activity at 1 µM ([4]; 1 µM 2015, read-out: DAPK2 residual activity) was 100% and the remaining activity at 0.2 µM ([4]; DAPK2, 0.2 µM, read-out: residual activity) was 116%. The remaining activity at 1 µM ([4]; DAPK2, 1 µM, read-out: residual activity) was 100%, the remaining activity at 0.2 µM ([5]; 0.2 µM 2015, read-out: ZAP70 residual activity) was 122% and the remaining activity at 1 µM ([5]; 1 µM 2015, read-out: ZAP70 residual activity) was 100%. For the same molecule, the remaining activity at 0.2 µM ([5]; ZAP70, 0.2 µM, read-out: residual activity) was 122%, the remaining activity at 1 µM ([5]; ZAP70, 1 µM, read-out: residual activity) was 100% and the remaining activity at 0.2 µM ([6]; 0.2 µM 2015, read-out: ABL1 residual activity) was 108%. For the same molecule, the remaining activity at 1 µM ([6]; 1 µM 2015, read-out: ABL1 residual activity) was 99.6%, the remaining activity at 0.2 µM ([6]; ABL1, 0.2 µM, read-out: residual activity) was 108% and the remaining activity at 1 µM ([6]; ABL1, 1 µM, read-out: residual activity) was 99.6%. It also gave a remaining activity at 0.2 µM ([7]; 0.2 µM 2015, read-out: MAPKAPK3 residual activity) of 97.3%, a remaining activity at 1 µM ([7]; 1 µM 2015, read-out: MAPKAPK3 residual activity) of 86.1% and a remaining activity at 0.2 µM ([7]; MAPKAPK3, 0.2 µM, read-out: residual activity) of 97.3%. The remaining activity at 1 µM ([7]; MAPKAPK3, 1 µM, read-out: residual activity) was 86.1%.
